Our source for the mutagenic call values is PubChem BioAssay AID1259407 (Chemical Carcinogenesis Research Information System (CCRIS), 2018).

Active and inactive are the calls of the source. How the calls were made is not given here.

In this series the test system is CCRIS mutagenicity, Ames/micronucleus/aberration tests. Nature of the series: CCRIS mutagenicity studies.
Where [1] appears, read: Test System: AMES SALMONELLA TYPHIMURIUM, Strain/Indicator: TA98, Metabolic Activation: NONE, Method: PREINCUBATION
[2] abbreviates: Test System: AMES SALMONELLA TYPHIMURIUM, Strain/Indicator: TA100, Metabolic Activation: NONE, Method: PREINCUBATION
Where [3] appears, read: Test System: AMES SALMONELLA TYPHIMURIUM, Strain/Indicator: TA1535, Metabolic Activation: NONE, Method: STANDARD PLATE.
The mark [4] stands for this setting: Test System: AMES SALMONELLA TYPHIMURIUM, Strain/Indicator: TA98, Metabolic Activation: NONE, Method: STANDARD PLATE.
Where [5] appears, read: Test System: AMES SALMONELLA TYPHIMURIUM, Strain/Indicator: TA98, Metabolic Activation: S-9, Method: STANDARD PLATE.
[6] abbreviates: Test System: AMES SALMONELLA TYPHIMURIUM, Strain/Indicator: TA100, Metabolic Activation: NONE, Method: STANDARD PLATE.
Setting [7] is: Test System: AMES SALMONELLA TYPHIMURIUM, Strain/Indicator: TA100, Metabolic Activation: S-9, Method: STANDARD PLATE.

`CCC(C)c1ccccc1O` (stereo not drawn): the mutagenic call is, setting by setting: (Test System: AMES SALMONELLA TYPHIMURIUM, Strain/Indicator: TA98, Metabolic Activation: HAMSTER, LIVER, S-9, AROCLOR 1254 (10%), Method: PREINCUBATION) “inactive; negative”; under setting [1], “inactive; negative”; (Test System: AMES SALMONELLA TYPHIMURIUM, Strain/Indicator: TA98, Metabolic Activation: RAT LIVER S-9, PHENOBARBITAL AND BETA-NAPHTHOFLAVONE, Method: PREINCUBATION) “inactive; negative”; (Test System: AMES SALMONELLA TYPHIMURIUM, Strain/Indicator: TA98, Metabolic Activation: RAT, LIVER, S-9, AROCLOR 1254 (10%), Method: PREINCUBATION) “inactive; negative”; (Test System: AMES SALMONELLA TYPHIMURIUM, Strain/Indicator: TA100, Metabolic Activation: HAMSTER, LIVER, S-9, AROCLOR 1254 (10%), Method: PREINCUBATION) “inactive; negative”; under setting [2], “inactive; negative”. In addition, the mutagenic call is “inactive; negative” (Test System: AMES SALMONELLA TYPHIMURIUM, Strain/Indicator: TA100, Metabolic Activation: RAT LIVER S-9, PHENOBARBITAL AND BETA-NAPHTHOFLAVONE, Method: PREINCUBATION); “inactive; negative” (Test System: AMES SALMONELLA TYPHIMURIUM, Strain/Indicator: TA100, Metabolic Activation: RAT, LIVER, S-9, AROCLOR 1254 (10%), Method: PREINCUBATION); “inactive; negative” (Test System: AMES SALMONELLA TYPHIMURIUM, Strain/Indicator: TA1535, Metabolic Activation: HAMSTER, LIVER, S-9, AROCLOR 1254 (10%), Method: PREINCUBATION); “inactive; negative” (Test System: AMES SALMONELLA TYPHIMURIUM, Strain/Indicator: TA1535, Metabolic Activation: NONE, Method: PREINCUBATION); “inactive; negative” (Test System: AMES SALMONELLA TYPHIMURIUM, Strain/Indicator: TA1535, Metabolic Activation: RAT LIVER S-9, PHENOBARBITAL AND BETA-NAPHTHOFLAVONE, Method: PREINCUBATION); “inactive; negative” (Test System: AMES SALMONELLA TYPHIMURIUM, Strain/Indicator: TA1535, Metabolic Activation: RAT, LIVER, S-9, AROCLOR 1254 (10%), Method: PREINCUBATION). In addition, the mutagenic call was “inactive; negative” (Test System: AMES SALMONELLA TYPHIMURIUM, Strain/Indicator: TA1537, Metabolic Activation: HAMSTER, LIVER, S-9, AROCLOR 1254 (10%), Method: PREINCUBATION); “inactive; negative” (Test System: AMES SALMONELLA TYPHIMURIUM, Strain/Indicator: TA1537, Metabolic Activation: NONE, Method: PREINCUBATION); “inactive; negative” (Test System: AMES SALMONELLA TYPHIMURIUM, Strain/Indicator: TA1537, Metabolic Activation: RAT LIVER S-9, PHENOBARBITAL AND BETA-NAPHTHOFLAVONE, Method: PREINCUBATION); “inactive; negative” (Test System: AMES SALMONELLA TYPHIMURIUM, Strain/Indicator: TA1537, Metabolic Activation: RAT, LIVER, S-9, AROCLOR 1254 (10%), Method: PREINCUBATION); “inactive; negative” (Test System: E.COLI, Strain/Indicator: WP2UVRA/PKM101, Metabolic Activation: NONE, Method: PREINCUBATION); “inactive; negative” (Test System: E.COLI, Strain/Indicator: WP2UVRA/PKM101, Metabolic Activation: RAT LIVER S-9, PHENOBARBITAL AND BETA-NAPHTHOFLAVONE, Method: PREINCUBATION).
Regarding `CC(=O)N(O[C@@H]1O[C@H](CO)[C@@H](O)[C@H](O)[C@H]1O)c1ccc(Oc2ccc(Cl)cc2)cc1`, the mutagenic call by setting is: (Test System: AMES SALMONELLA TYPHIMURIUM, Strain/Indicator: TA100, Metabolic Activation: GUINEA PIG, LIVER, MICROSOMAL FRACTION, PCB) “active; positive”; (Test System: AMES SALMONELLA TYPHIMURIUM, Strain/Indicator: TA100, Metabolic Activation: GUINEA PIG, LIVER, S-9, PCB) “active; positive”; (Test System: AMES SALMONELLA TYPHIMURIUM, Strain/Indicator: TA100, Metabolic Activation: GUINEA PIG, LIVER, S-105, PCB) “inactive; negative”.
Take `C=CCNC(N)=O`: the mutagenic call (Test System: AMES SALMONELLA TYPHIMURIUM, Strain/Indicator: TA98, Metabolic Activation: HAMSTER, LIVER, S-9, AROCLOR 1254 (30%), Method: PREINCUBATION) is “inactive; negative”; the mutagenic call under setting [1] is “inactive; negative”; the mutagenic call (Test System: AMES SALMONELLA TYPHIMURIUM, Strain/Indicator: TA100, Metabolic Activation: HAMSTER, LIVER, S-9, AROCLOR 1254 (5, 10 OR 30%), Method: PREINCUBATION) was “inactive; negative”; the mutagenic call under setting [2] was “inactive; negative”; the mutagenic call (Test System: AMES SALMONELLA TYPHIMURIUM, Strain/Indicator: TA100, Metabolic Activation: RAT, LIVER, S-9, AROCLOR 1254 (30%), Method: PREINCUBATION) is “inactive; negative”; the mutagenic call (Test System: AMES SALMONELLA TYPHIMURIUM, Strain/Indicator: TA1535, Metabolic Activation: HAMSTER, LIVER, S-9, AROCLOR 1254 (5 OR 10%), Method: PREINCUBATION) was “inactive; negative”. The mutagenic call (Test System: AMES SALMONELLA TYPHIMURIUM, Strain/Indicator: TA1535, Metabolic Activation: HAMSTER, LIVER, S-9, AROCLOR 1254 (30%), Method: PREINCUBATION) was “active; positive”.
On to `CC(=O)OCN(CCCCl)N=O`, for which the mutagenic call by setting is: (Test System: AMES SALMONELLA TYPHIMURIUM, Strain/Indicator: TA92, Metabolic Activation: NONE, Method: STANDARD PLATE) “active; positive”; under setting [3], “active; positive”.
In the case of `O=C(NC(Cc1cc(=O)[nH]c2ccccc12)C(=O)O)c1ccc(Cl)cc1` (stereo not drawn), the mutagenic call reads like this: under setting [4], “inactive; negative”; under setting [5], “inactive; negative”; under setting [6], “inactive; negative”; under setting [7], “inactive; negative”; under setting [3], “inactive; negative”; (Test System: AMES SALMONELLA TYPHIMURIUM, Strain/Indicator: TA1535, Metabolic Activation: S-9, Method: STANDARD PLATE) “inactive; negative”. The mutagenic call was “inactive; negative” (Test System: AMES SALMONELLA TYPHIMURIUM, Strain/Indicator: TA1537, Metabolic Activation: NONE, Method: STANDARD PLATE); “inactive; negative” (Test System: AMES SALMONELLA TYPHIMURIUM, Strain/Indicator: TA1537, Metabolic Activation: S-9, Method: STANDARD PLATE); “inactive; negative” (Test System: AMES SALMONELLA TYPHIMURIUM, Strain/Indicator: TA1538, Metabolic Activation: NONE, Method: STANDARD PLATE); “inactive; negative” (Test System: AMES SALMONELLA TYPHIMURIUM, Strain/Indicator: TA1538, Metabolic Activation: S-9, Method: STANDARD PLATE); “inactive; negative” (Test System: E.COLI, Strain/Indicator: WP2 UVRA, Metabolic Activation: NONE, Method: STANDARD PLATE); “inactive; negative” (Test System: E.COLI, Strain/Indicator: WP2 UVRA, Metabolic Activation: S-9, Method: STANDARD PLATE).
`COc1c(O)c(Cl)c(Cl)c(Cl)c1Cl`: the mutagenic call (Test System: CHINESE HAMSTER V-79, Strain/Indicator: V-79/6-THIOGUANINE, Metabolic Activation: NONE, Method: STANDARD PLATE) is “inactive; negative”.
Regarding `[Ru]`, the mutagenic call (End Point: In vitro chromosomal aberrations, Test System: Human lymphocytes, Metabolic Activation: None) was “inactive; negative. actual compound tested was cis(dichloro)tetraammonium ruthenium(iii)ch”.
On to `Brc1ccc(C2CO2)cc1` (stereo not drawn), for which, for the setting “Test System: E. COLI, Strain/Indicator: WP2 UVRA, Metabolic Activation: NONE, Method: STANDARD PLATE”, the mutagenic call was “active; positive”.
With `Nc1ccc(/C=C/c2ccc(Cl)cc2)cc1`, the mutagenic call (Test System: AMES SALMONELLA TYPHIMURIUM, Strain/Indicator: TA98(1,8-DNP6), Metabolic Activation: NONE, Method: STANDARD PLATE) is “inactive; negative”; the mutagenic call (Test System: AMES SALMONELLA TYPHIMURIUM, Strain/Indicator: TA98(1,8-DNP6), Metabolic Activation: S-9, Method: STANDARD PLATE) was “active; positive”; the mutagenic call under setting [4] was “inactive; negative”; the mutagenic call (Test System: AMES SALMONELLA TYPHIMURIUM, Strain/Indicator: TA98, Metabolic Activation: RAT, LIVER, S-9, AROCLOR 1254, Method: STANDARD PLATE) was “active; positive”; the mutagenic call under setting [5] is “active; positive”; the mutagenic call under setting [6] was “inactive; negative”. Besides, the mutagenic call is “active; positive” (Test System: AMES SALMONELLA TYPHIMURIUM, Strain/Indicator: TA100, Metabolic Activation: RAT, LIVER, S-9, AROCLOR 1254, Method: STANDARD PLATE) and “active; positive” under setting [7].
